# Experimental data taken from US6998410B2, “Compositions” (Altana Pharma AG, priority 1997, dated 2006).
# Tested on: Adult Sprague Dawley rats lavaged until their endogenous lung surfactant is washed out
# Experiment: Arterial oxygen partial pressure (PaO2) in lung-lavaged, ventilated rats (animal model of ARDS) after intratracheal instillation
# Assay type: in vivo, rat (Sprague Dawley)
# Details: for PaO2, average value (± standard deviation): Compound A 600 μg/kg alone
# Source text: Adult Sprague Dawley rats are artificially ventilated with pure oxygen and a positive end-expiratory pressure (PEEP; in order to guarantee oxygenation of the rats) and lavaged until their endogenous lung surfactant is washed out (D. Häfner, U. Kilian and R. Beume: Comparison of four lung surfactant preparations in an animal model of adult respiratory distress syndrome (ARDS). Am. Rev. Respir. Dis. 1993, 147:A719; D. Häfner, P. -G. Germann, D. Hauschke, Pulmonary Pharmacology (1994) 7, 319–332). This is manifested by the fact that in the animals the preliminary values of the arterial oxygen partial pressure (PaO2) of 500–550 mm Hg (in the case of pure oxygen ventilation and PEEP) decrease to values of 50–110 mm Hg. Animals of the control group, which are not treated with lung surfactant, remain with their PaO2 at these low values throughout the observation period. Sixty minutes after the PaO2 has decreased to these values, lung surfactant or lung surfactant together with N-(3,5-dichloropyrid-4-yl)-3-cyclopropylmethoxy-4-difluoromethoxybenzamide is instilled intratracheally. The blood gases are determined 30 and 120 minutes after instillation.
# In Table 1 and Table 2 which follow, in line A the average values (±standard deviation) of the PaO2 are indicated in mm Hg for the time 30 minutes (constant PEEP of 8 cm H2O) after intratracheal instillation and in line B 120 minutes after intratracheal instillation. […] This follows by comparison with the untreated control animals. […] It is therefore possible to save a part of the very expensive lung surfactant, or else to obtain an increased action of each individual component.
compound,measurement,setting,value
"O=C(Nc1c(Cl)cncc1Cl)c1ccc(OC(F)F)c(OCC2CC2)c1 [Compound A, N-(3,5-dichloropyrid-4-yl)-3-cyclopropylmethoxy-4-difluoromethoxybenzamide]","PaO2, average value (± standard deviation)",line A: 30 minutes after intratracheal instillation (constant PEEP of 8 cm H2O),59 ± 12 mm Hg
same,"PaO2, average value (± standard deviation)",line B: 120 minutes after intratracheal instillation,75 ± 24 mm Hg
same,Influence on the PaO2 (in words),"sole administration, by comparison with the untreated control animals",no influence on the PaO2
